≈ marks a conversion by molar mass, not a printed value.
What was measured:
[1] = test system: Staphylococcus aureus (Smith strain ATCC 13709); test: Staphylococcus aureus mouse protection assay; format: in vivo; conditions: Staph conc. 10^6 IP in 10% mucin, treatments at 1 hour and 3 hour post infection
Procedure: Two of the novel aminoglycoside compounds of the invention were examined for their anitbacterial activity against staphylococcus aureus. The mice were infected IP with 0.5 ml […] staphylococcus aureus in 10% mucin. There were 10 mice in each treated group with treatments at 1 hour and 3 hour post infection. The Ibis compounds (IBIS00561085 R4═R5═CH3 and IBIS00561141 R4═H, R5═(CH2)2C6H5) were used at 75 mg/kg, 37.5 mg/kg, 18.8 mg/kg, 9.4 mg/kg, 4.7 mg/kg, 2.3 mg/kg, 1.17 mg/kg and 0.5 mg/kg. Amakacin, Paromomycin and Neomycin were used as the positive controls at concentration of 2 mg/kg, 1 mg/kg and 0.5 mg/kg.

E. Coli. = test: Minimum inhibitory concentration (MIC), E. coli; format: cell-based; conditions: range of concentration, 20-24 hours at 37° C., A595; for MIC: Escherichia coli
Procedure: (§1) The assays are carried out in 150 μL volume in duplicate in 96-well clear flat-bottom plates. The bacterial suspension from an overnight culture growth in appropriate medium is added to a solution of test compound in 2.5% DMSO in water. Final bacterial inoculum is approximately 10^2-10^3 CFU/well. The percentage growth of the bacteria in test wells relative to that observed for a control wells containing no compound is determined by measuring absorbance at 595 nm (A595) after 20-24 hours at 37° C. The MIC is determined as a range of concentration where complete inhibition of growth is observed at the higher concentration and bacterial cells are viable at the lower concentration. Both ampicillin and tetracycline are used as antibiotic positive controls in each screening assay.

18S = 18S Kd by FTICR mass spectrometry; format: binding
Procedure: (§2) Was performed according to the published report; […]-Lowery, […].; Mohan, […]. et al. Characterization of Low Affinity Complexes Between RNA and Small Molecules Using Electrospray Ionization Mass Spectrometry. J. Am. Chem. […] Screening is performed by measuring the formation of non-covalent complexes between a single ligand or ligand mixture and the appropriate RNA target, along with suitable control structured RNA target(s) simultaneously using a 9.4 T FT-ICR mass spectrometer as detector. Full experimental details of the assay have been described in related literature ([…]-Lowery, et al. in TrAC, Trends Anal. […] The abundances were integrated from the respective ions for free RNA and the ligand-RNA complex. […] The peak ratios are measured at each concentration, then a plot of complex/free RNA versus concentration of ligand added is fitted to a second (or higher) order binding polynomial to determine the KD.

16S = test: Measurement of 16S Kd by FTICR mass spectrometry; format: binding
Procedure: as §2

S. Aureus = test: Minimum inhibitory concentration (MIC), S. aureus; format: cell-based; conditions: range of concentration, 20-24 hours at 37° C., A595; for MIC: Staphylococcus aureus
Procedure: as §1

[2] = test system: E. coli S30 bacterial extract (pBest Luc luciferase transcription/translation); test: Coupled bacterial transcription/translation assay (T/T); format: biochemical; conditions: luciferase reporter, 35 minutes at 37° C., read-out: Trans/Trans IC50
Procedure: The DNA template, pBest Luc™ (Promega), is a plasmid containing a reporter gene for firefly luciferase fused to a strong tac promoter and ribosome binding site. Messenger RNA from 1 μg pBestLuc was transcribed and translated in E. coli S30 bacterial extract in the presence or absence of test compound. Compounds were tested in a black 96 well microtiter plate with an assay volume of […]. Each test well contained: 5 μL test compound, 13 μL S30 premix (Promega), 4 μL 10× complete amino acid mix (1 mM each), 5 μL E. coli S30 extract and 8 μL of 0.125 μg/μL pBest Luc™. The transcription/translation reaction was incubated for 35 minutes at 37° C. followed by detection of functional luciferase with the addition of 30 μL LucLite™ (Packard). Light output was quantitated on a Packard TopCount.

NCC[C@H](O)C(=O)N[C@@H]1C[C@H](N)[C@@H](O[C@H]2O[C@H](CN)[C@@H](O)[C@H](O)[C@H]2O)[C@H](O)[C@H]1O[C@H]1O[C@H](CO)[C@@H](O)[C@H](N)[C@H]1O [Amikacin]
# Dead mice/Total mice in group ([1]; 0.5 mg/kg): 8/10 (10% Mucin) | # Dead mice/Total mice in group ([1]; 1 mg/kg): 10/10 (10% Mucin) | # Dead mice/Total mice in group ([1]; 2 mg/kg): 8/10 (10% Mucin)

CNC[C@H]1O[C@H](O[C@H]2[C@H](O[C@@H]3O[C@H](CO)[C@@H](O[C@H]4O[C@@H](CN)[C@@H](O)[C@H](O)[C@H]4N)[C@H]3O)[C@@H](O)[C@H](N)C[C@@H]2N)[C@H](N)[C@@H](O)[C@@H]1O [IBIS00560186]
MIC E. Coli. (E. Coli.): 2 to 3 µM | Kd (18S): 1.16 µM | Kd (16S): 0.362 µM | MIC S. Aureus (S. Aureus): 2 to 3 µM | IC50 [2]: 0.159 µM

NC[C@@H]1O[C@H](O[C@H]2[C@@H](O)[C@H](O[C@@H]3[C@@H](O)[C@H](N)C[C@H](N)[C@H]3O[C@H]3O[C@H](CNN)[C@@H](O)[C@H](O)[C@H]3N)O[C@@H]2CO)[C@H](N)[C@@H](O)[C@@H]1O [IBIS00560187]
MIC E. Coli. (E. Coli.): 12 to 25 µM | Kd (18S): 1.66 µM | Kd (16S): 0.564 µM | MIC S. Aureus (S. Aureus): 3 to 6 µM | IC50 [2]: 0.235 µM

CC(C)(C)OC(=O)NNC[C@H]1O[C@H](O[C@H]2[C@H](O[C@@H]3O[C@H](CO)[C@@H](O[C@H]4O[C@@H](CN)[C@@H](O)[C@H](O)[C@H]4N)[C@H]3O)[C@@H](O)[C@H](N)C[C@@H]2N)[C@H](N)[C@@H](O)[C@@H]1O [IBIS00561082]
MIC E. Coli. (E. Coli.): 6 to 12 µM | Kd (18S): 1.35 µM | Kd (16S): 0.0149 µM | MIC S. Aureus (S. Aureus): 12 to 25 µM | IC50 [2]: 0.308 µM

CC(C)NC[C@H]1O[C@H](O[C@H]2[C@H](O[C@@H]3O[C@H](CO)[C@@H](O[C@H]4O[C@@H](CN)[C@@H](O)[C@H](O)[C@H]4N)[C@H]3O)[C@@H](O)[C@H](N)C[C@@H]2N)[C@H](N)[C@@H](O)[C@@H]1O [IBIS00561095]
MIC E. Coli. (E. Coli.): 2.5 to 5.0 µM | Kd (18S): 1.21 µM | Kd (16S): 1.18 µM | MIC S. Aureus (S. Aureus): 1.25 to 2.5 µM | IC50 [2]: 0.202 µM

Cc1ccc(CCNC[C@H]2O[C@H](O[C@H]3[C@H](O[C@@H]4O[C@H](CO)[C@@H](O[C@H]5O[C@@H](CN)[C@@H](O)[C@H](O)[C@H]5N)[C@H]4O)[C@@H](O)[C@H](N)C[C@@H]3N)[C@H](N)[C@@H](O)[C@@H]2O)cc1 [IBIS00561930]
MIC E. Coli. (E. Coli.): 2.5 to 5.0 µM | MIC S. Aureus (S. Aureus): 0.6 to 1.2 µM

CN(CCc1ccccc1)C[C@H]1O[C@H](O[C@H]2[C@H](O[C@@H]3O[C@H](CO)[C@@H](O[C@H]4O[C@@H](CN)[C@@H](O)[C@H](O)[C@H]4N)[C@H]3O)[C@@H](O)[C@H](N)C[C@@H]2N)[C@H](N)[C@@H](O)[C@@H]1O [IBIS00561931]
MIC E. Coli. (E. Coli.): 2.5 to 5.0 µM | MIC S. Aureus (S. Aureus): 0.31 to 0.62 µM

NC[C@@H]1O[C@H](O[C@H]2[C@@H](O)[C@H](O[C@@H]3[C@@H](O)[C@H](N)C[C@H](N)[C@H]3O[C@H]3O[C@H](CNCCCc4ccccc4)[C@@H](O)[C@H](O)[C@H]3N)O[C@@H]2CO)[C@H](N)[C@@H](O)[C@@H]1O [IBIS00561932]
MIC E. Coli. (E. Coli.): 0.6 to 1.2 µM | MIC S. Aureus (S. Aureus): 0.31 to 0.62 µM

COc1ccc(CCNC[C@H]2O[C@H](O[C@H]3[C@H](O[C@@H]4O[C@H](CO)[C@@H](O[C@H]5O[C@@H](CN)[C@@H](O)[C@H](O)[C@H]5N)[C@H]4O)[C@@H](O)[C@H](N)C[C@@H]3N)[C@H](N)[C@@H](O)[C@@H]2O)cc1 [IBIS00561933]
MIC (E. Coli.): 1.25 to 2.5 µM (≈ 0.936 to 1.87 µg/mL) | MIC (S. Aureus): 0.31 to 0.62 µM (≈ 0.232 to 0.464 µg/mL)

COc1cccc(CCNC[C@H]2O[C@H](O[C@H]3[C@H](O[C@@H]4O[C@H](CO)[C@@H](O[C@H]5O[C@@H](CN)[C@@H](O)[C@H](O)[C@H]5N)[C@H]4O)[C@@H](O)[C@H](N)C[C@@H]3N)[C@H](N)[C@@H](O)[C@@H]2O)c1 [IBIS00561934]
MIC E. Coli. (E. Coli.): 1.25 to 2.5 µM | MIC S. Aureus (S. Aureus): 0.31 to 0.62 µM

COc1ccccc1CCNC[C@H]1O[C@H](O[C@H]2[C@H](O[C@@H]3O[C@H](CO)[C@@H](O[C@H]4O[C@@H](CN)[C@@H](O)[C@H](O)[C@H]4N)[C@H]3O)[C@@H](O)[C@H](N)C[C@@H]2N)[C@H](N)[C@@H](O)[C@@H]1O [IBIS00561935]
MIC E. Coli. (E. Coli.): 1.25 to 2.5 µM | MIC S. Aureus (S. Aureus): 0.31 to 0.62 µM

NCC1OC(OC2C(CO)OC(OC3C(O)C(N)CC(N)C3OC3OC(CNCC(O)c4ccccc4)C(O)C(O)C3N)C2O)C(N)C(O)C1O (centres unmarked) [IBIS00561937]
MIC E. Coli. (E. Coli.): 5.0 to 10.0 µM | MIC S. Aureus (S. Aureus): 0.6 to 1.2 µM

NC[C@@H]1O[C@H](O[C@H]2[C@@H](O)[C@H](O[C@@H]3[C@@H](O)[C@H](N)C[C@H](N)[C@H]3O[C@H]3O[C@H](CN4CCC5CCCCC54)[C@@H](O)[C@H](O)[C@H]3N)O[C@@H]2CO)[C@H](N)[C@@H](O)[C@@H]1O (some centres unmarked) [IBIS00561939]
MIC (E. Coli.): 1.25 to 2.5 µM (≈ 0.904 to 1.81 µg/mL) | MIC (S. Aureus): 0.31 to 0.62 µM (≈ 0.224 to 0.448 µg/mL)

NCC1OC(OC2C(CO)OC(OC3C(O)C(N)CC(N)C3OC3OC(CNCCc4c[nH]c5ccccc45)C(O)C(O)C3N)C2O)C(N)C(O)C1O (centres unmarked) [IBIS00561940]
MIC E. Coli. (E. Coli.): 1.25 to 2.5 µM | MIC S. Aureus (S. Aureus): 1.25 to 2.5 µM

NC[C@@H]1O[C@H](O[C@H]2[C@@H](O)[C@H](O[C@@H]3[C@@H](O)[C@H](N)C[C@H](N)[C@H]3O[C@H]3O[C@H](CNCCc4ccc(C(F)(F)F)cc4)[C@@H](O)[C@H](O)[C@H]3N)O[C@@H]2CO)[C@H](N)[C@@H](O)[C@@H]1O [IBIS00561942]
MIC E. Coli. (E. Coli.): 1.25 to 2.5 µM | MIC S. Aureus (S. Aureus): 0.31 to 0.62 µM

NC[C@@H]1O[C@H](O[C@H]2[C@@H](O)[C@H](O[C@@H]3[C@@H](O)[C@H](N)C[C@H](N)[C@H]3O[C@H]3O[C@H](CNCCc4cccc(C(F)(F)F)c4)[C@@H](O)[C@H](O)[C@H]3N)O[C@@H]2CO)[C@H](N)[C@@H](O)[C@@H]1O [IBIS00561943]
MIC (E. Coli.): 0.6 to 1.2 µM (≈ 0.472 to 0.944 µg/mL) | MIC (S. Aureus): 0.16 to 0.31 µM (≈ 0.126 to 0.244 µg/mL)

NC[C@@H]1O[C@H](O[C@H]2[C@@H](O)[C@H](O[C@@H]3[C@@H](O)[C@H](N)C[C@H](N)[C@H]3O[C@H]3O[C@H](CNCCc4ccc(F)cc4)[C@@H](O)[C@H](O)[C@H]3N)O[C@@H]2CO)[C@H](N)[C@@H](O)[C@@H]1O [IBIS00561944]
MIC E. Coli. (E. Coli.): 0.6 to 1.2 µM | MIC S. Aureus (S. Aureus): 0.16 to 0.31 µM

NC[C@@H]1O[C@H](O[C@H]2[C@@H](O)[C@H](O[C@@H]3[C@@H](O)[C@H](N)C[C@H](N)[C@H]3O[C@H]3O[C@H](CO)[C@@H](O)[C@H](O)[C@H]3N)O[C@@H]2CO)[C@H](N)[C@@H](O)[C@@H]1O [Paromomycin]
# Dead mice/Total mice in group ([1]; 0.5 mg/kg): 10/10 (10% Mucin) | # Dead mice/Total mice in group ([1]; 1 mg/kg): 10/10 (10% Mucin) | # Dead mice/Total mice in group ([1]; 2 mg/kg): 9/10 (10% Mucin)

Neomycin
# Dead mice/Total mice in group ([1]; 0.5 mg/kg): 7/10 (10% Mucin) | # Dead mice/Total mice in group ([1]; 1 mg/kg): 10/10 (10% Mucin) | # Dead mice/Total mice in group ([1]; 2 mg/kg): 4/10 (10% Mucin)
